Data: US10947284B2, “Fusion molecules” (Pieris Pharmaceuticals GMBH, priority 2015, dated 2021)

Tests used:
[1] = target: T1, hNGAL (human lipocalin 2, parent wild type SEQ ID NO: 1) mutein SEQ ID NO: 62 (Homo sapiens, UniProt P80188, A60Q/C107S/D65G/D97L/I61W/K145F/K154F/K66R/K93I/L123G/L56H/L90D/N85D/Q69R/R101T/R92A/S147I/S88D/W99R/Y120H/Y126G/Y152A/Y72W); test: Surface plasmon resonance (Biacore T200), CM5 chip; type: binding; settings: SPR, high concentrations (≥1 μM)
T1 construct: made in house
T1 sequence (P80188 21-198 with the stated changes): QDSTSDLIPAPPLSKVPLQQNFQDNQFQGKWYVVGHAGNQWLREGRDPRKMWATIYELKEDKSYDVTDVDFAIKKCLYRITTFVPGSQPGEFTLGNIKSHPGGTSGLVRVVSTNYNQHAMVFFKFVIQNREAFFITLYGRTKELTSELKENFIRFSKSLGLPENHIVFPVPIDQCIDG
Description: (§1) Subsequently, 5 μg/mL of mutein or the negative control solution in 10 mM acetate pH 4.0 was applied at a flow rate of 10 μl/min until a high immobilization level of approximately 2000 RU was achieved. Residual activated groups were quenched with ethanolamine. The reference channels were treated with EDC/NHS following ethanolamine (blank immobilization).
The binding assay was carried out with a contact time of 180 s, dissociation times of 1200-1800 s and applying a flow rate of 30 μl/min. Measurements were performed at 25° C. Regeneration of the immobilized mutein surface was achieved by three consecutive injections of 10 mM Gly-HCl pH 1.5 (120 s) followed by an extra wash with running buffer and a stabilization period. Data were evaluated with Biacore T200 Evaluation software (V 1.0). Double referencing was used. The 1:1 Binding model was used to fit the raw data.
Subsequently, 5 μg/mL of mutein or the negative control solution in 10 mM acetate pH 4.0 was applied at a flow rate of 10 μl/min until a high immobilization level of approximately 2000 RU was achieved. Residual activated groups were quenched with ethanolamine. The reference channels were treated with EDC/NHS following ethanolamine (blank immobilization). […] The binding assay was carried out with a contact time of 180 s, dissociation times of 1500-1800 s and applying a flow rate of 30 μl/min. Measurements were performed at 25° C. Regeneration of the immobilized mutein surface was achieved by three consecutive injections of 10 mM Gly-HCl pH 1.5 (120 s) followed by an extra wash with running buffer and a stabilization period. Data were evaluated with Biacore T200 Evaluation software (V 1.0). Double referencing was used. The 1:1 Binding model was used to fit the raw data.

[2] = target: T2, Fusion molecule SEQ ID NO: 134 (hNGAL muteins SEQ ID NOs: 36, 16, 53 and 62) (Homo sapiens, UniProt P80188, A60T/C107S/D97H, form not given/K145I/K154W/K93R/L123T/L56V/L90R/N85D/Q69G/R101D/R92I/S147R/S88D/T74A/W99Y/Y126Q/Y152I/Y72N); test: Surface plasmon resonance (Biacore T200); type: binding
T2 construct: made in house; host or cells: HEK293
T2 sequence (P80188 with tags, fused parts or gaps with the stated changes, form open): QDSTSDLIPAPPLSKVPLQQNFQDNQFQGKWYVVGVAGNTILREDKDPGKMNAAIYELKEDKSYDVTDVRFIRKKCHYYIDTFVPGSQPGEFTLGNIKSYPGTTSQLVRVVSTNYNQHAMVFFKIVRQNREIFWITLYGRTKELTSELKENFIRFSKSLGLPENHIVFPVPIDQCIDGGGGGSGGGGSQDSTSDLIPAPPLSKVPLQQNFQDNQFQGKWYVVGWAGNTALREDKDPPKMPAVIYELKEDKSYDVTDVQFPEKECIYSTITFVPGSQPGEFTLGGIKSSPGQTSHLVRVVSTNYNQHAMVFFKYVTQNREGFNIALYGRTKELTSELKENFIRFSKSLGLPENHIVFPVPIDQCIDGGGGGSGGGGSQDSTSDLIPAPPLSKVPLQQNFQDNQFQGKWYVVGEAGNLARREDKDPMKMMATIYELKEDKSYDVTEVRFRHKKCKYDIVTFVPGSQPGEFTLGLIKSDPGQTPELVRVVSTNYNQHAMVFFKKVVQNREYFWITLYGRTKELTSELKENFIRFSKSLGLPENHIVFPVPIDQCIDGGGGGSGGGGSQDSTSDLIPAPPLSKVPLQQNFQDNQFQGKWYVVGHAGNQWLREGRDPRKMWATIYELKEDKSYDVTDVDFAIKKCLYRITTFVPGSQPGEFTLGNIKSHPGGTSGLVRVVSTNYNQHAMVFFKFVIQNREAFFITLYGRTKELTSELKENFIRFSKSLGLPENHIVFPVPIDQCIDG

[3] = target: lipocalin negative control SEQ ID NO: 64 (Homo sapiens, UniProt P80188, C107S/Q48H); test: Surface plasmon resonance (Biacore T200); type: binding; settings: Biacore, Example 18
lipocalin negative control SEQ ID NO: 64, sequence (P80188 21-198 Q48H/C107S): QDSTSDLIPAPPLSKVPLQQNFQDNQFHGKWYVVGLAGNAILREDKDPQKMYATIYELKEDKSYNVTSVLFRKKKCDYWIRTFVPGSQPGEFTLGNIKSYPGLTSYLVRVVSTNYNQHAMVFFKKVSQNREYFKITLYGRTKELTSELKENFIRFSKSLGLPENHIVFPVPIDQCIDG
Description: In a Surface Plasmon Resonance (SPR) based assay a Biacore T200 instrument (GE Healthcare) was used to measure the binding affinity of muteins to pyoverdine I succinyl, -succinamide, -α-ketoglutaryl with complexed iron ion or to pyoverdine II succinyl, -succinamide, -α-ketoglutaryl with complexed iron ion or to pyoverdine III succinyl, -succinamide, -α-ketoglutaryl with complexed iron ion. Muteins selected for binding to pyoverdines and negative control (SEQ ID NO: 64) were biotinylated for 2 h at room temperature applying an appropriate excess of EZ-Link NHS-PEG4-Biotin (Thermo, Cat #21329) followed by separation of non-reacted Biotin using a Zebra Spin Desalting Plate (Thermo, Cat #21329) according to the manufactures instructions.
In the SPR affinity assay, biotinylated muteins and negative control were captured on a sensor chip CAP using the Biotin CAPture Kit (GE Healthcare): Sensor Chip CAP is pre-immobilized with an ssDNA oligo. Undiluted Biotin CAPture Reagent (streptavidin conjugated with the complementary ss-DNA oligo) was applied at a flow rate of 2 μl/min for 300 s. Subsequently, 1 μg/ml to 100 μg/mL of biotinylated muteins or negative control were applied for 300 s at a flow rate of 5 μl/min. The reference channel was loaded with Biotin CAPture Reagent only.
Applying a flow rate of 30 μl/min, a single cycle or multi cycle kinetics approach was used with a sample contact time of 120-180 s and a dissociation time of 900-2400 s. […] After ligand immobilization, for analysis using single cycle kinetics all 4-5 concentrations of Pvd were applied consecutively in ascending order before the dissociation was monitored. For analysis using multi cycle kinetics 4 dilutions of Pvd were applied, each followed a dissociation phase. All measurements were performed at 25° C. […] Data were evaluated with Biacore T200 Evaluation software (V 1.0). Double referencing was used. A 1:1 Binding model was used to fit the raw data.
as §1
In the SPR affinity assay, biotinylated muteins and negative control were captured on a sensor chip CAP using the Biotin CAPture Kit (GE Healthcare), wherein the Sensor Chip CAP is pre-immobilized with an ssDNA oligo. Undiluted Biotin CAPture Reagent (streptavidin conjugated with the complementary ss-DNA oligo) was applied at a flow rate of 2 μl/min for 300 s. Subsequently, 20 μg/ml to 100 μg/mL of biotinylated muteins or fusion molecule negative control were applied for 300 s at a flow rate of 5 μl/min. The reference channel was loaded with Biotin CAPture Reagent only. To determine the binding affinity, four dilutions of the respective Pvd were prepared in HBS-EP+ buffer (GE Healthcare) and applied to the chip surface. Applying a flow rate of 30 μl/min, a single cycle kinetics approach was used with a sample contact time of 180 s and a dissociation time of 1800-2400 s. […] After ligand immobilization, the four concentrations of Pvd were applied consecutively in ascending order before the dissociation was monitored. All measurements were performed at 25° C. […] Data were evaluated with Biacore T200 Evaluation software (V 1.0). Double referencing was preformed. A 1:1 binding model was used to fit the raw data.

[4] = target: hNGAL (human lipocalin 2), wild type, SEQ ID NO: 1 (Homo sapiens, UniProt P80188); test: Surface plasmon resonance (Biacore T200); type: binding; settings: positive control
hNGAL (human lipocalin 2), wild type, SEQ ID NO: 1, sequence (P80188 21-198): as the sequence (P80188 21-198 Q48H/C107S) above, with H28Q, S87C counted along it
From the text: In a surface plasmon resonance (SPR) based assay, a Biacore T200 instrument (GE Healthcare) was used to measure the binding affinity of individual muteins or fusion molecules to pyoverdine siderophores (to pyoverdine I succinyl, -succinamide, -α-ketoglutaryl with complexed iron ion or to pyoverdine II succinyl, -succinamide, -α-ketoglutaryl with complexed iron ion or to pyoverdine III succinyl, -succinamide, -α-ketoglutaryl with complexed iron ion). To this end, muteins selected for binding to pyoverdines (SEQ ID NOs: 16, 36, 53), a fusion molecule (SEQ ID NO: 134) and a negative control (SEQ ID NO: 64) were biotinylated for 2 h at room temperature applying an appropriate excess of EZ-Link NHS-PEG4-Biotin (Thermo, Cat #21329) followed by separation of non-reacted biotin using a Zebra Spin Desalting Plate (Thermo, […]) according to the manufacturer's instructions.
In the SPR affinity assay, biotinylated muteins and negative control were captured on a sensor chip CAP using the Biotin CAPture Kit (GE Healthcare), wherein the Sensor Chip CAP is pre-immobilized with an ssDNA oligo. […] After ligand immobilization, the four concentrations of Pvd were applied consecutively in ascending order before the dissociation was monitored. […] Data were evaluated with Biacore T200 Evaluation software (V 1.0). […]

[5] = test system: P. aeruginosa PA01; test: Chronic lung infection model in rats; type: in vivo, Sprague Dawley rats; settings: 20 mg/kg/dose, IV BD, treatment from day 3 post infection
Description: P. aeruginosa, PA01, was recovered from long-term storage at −80° C. by sub-culturing onto fresh blood agar plates and incubating at 37° C. overnight. The inoculum was prepared by picking 5-10 distinct colonies from the culture plates followed by suspension in 10 mL of Muller-Hinton broth. The culture was incubated for 18 hours on an orbital shaker at 300 rpm and 37° C. The culture was washed twice in PBS, then the pellet was resuspended in PBS and adjusted to an optical density of 0.669 at 600 nm (approximately 1.2×10^9 CFU/mL). This was further diluted to give an inoculum concentration of 6×10^7 CFU/mL. 1 mL of this inoculum was added to 30 mL of bacteriological agar, used to prepare the agarose beads (Cash H. A. et al., 1979). The final concentration of PA01 in the agarose beads was 2×10^6 CFU/mL (1×10^5 CFU per 50 μL inoculum).
Sprague Dawley rats used in this study were supplied by Charles River Laboratories UK. Rats were 200-225 g at the time of delivery and were specific pathogen free. Following arrival, rats were allowed at least 7 days acclimatization before the study was started. Rats were 250-300 g at the start of the study. Rats were group housed in sterile individually ventilated cages exposing the animals at all times to HEPA filtered sterile air. Rats had free access to food and water (sterile) and had sterile aspen chip bedding (changed every 3-4 days or as appropriate). […]

Row | SMILES | binding [1] | KD ([2]; Biacore, 25° C., Table 13) | binding ([2]; SPR, high concentrations (≥1 μM)) | binding [3] | binding [4] | clearance of lung infection [5]
1 | O=C(N[C@H]1COC(=O)[C@@H](NC(=O)c2cccc(O)c2O)COC(=O)[C@@H](NC(=O)c2cccc(O)c2O)COC1=O)c1cccc(O)c1O.[Fe+3] [Fe-Enterobactin, Fe-enterobactin] | absence of binding | no bdg | absence of binding | showed binding | showed binding | 
2 | NC[C@H]1O[C@H](O[C@H]2[C@H](O)[C@@H](O[C@H]3O[C@H](CO)[C@@H](O)[C@H](N)[C@H]3O)[C@H](N)C[C@@H]2N)[C@H](N)C[C@@H]1O [Tobramycin] |  |  |  |  |  | cleared the infection starting from day 5 post-infection
